Converted amounts (≈) assume the structure as drawn. The source made the active and inactive calls. No cut-off for these calls is given here.
Experiments:
[1] = tested on: Mycobacterium tuberculosis; assay: Antitubercular activity against Mycobacterium tuberculosis H37Rv assessed as growth inhibition after 30 days by agar microdilution method; format: functional
[2] = Inhibition of nick joining activity of Mycobacterium tuberculosis full length NAD+-dependent DNA ligase using [gamma32P]ATP-labeled nicked 40 bp DNA as substrate
DNA ligase 1 = DNA ligase 1 (Homo sapiens, UniProt P18858); assay: Inhibition of nick joining activity of human DNA ligase 1 using [gamma32P]ATP-labeled nicked 40 bp DNA as substrate
DNA ligase = molecular target: T1, DNA ligase (Enterobacteria phage T4, UniProt P00970); assay: Inhibition of nick joining activity of ATP-dependent bacteriophage T4 DNA ligase using [gamma32P]ATP-labeled nicked 40 bp DNA as substrate; design: species or system Tequatrovirus T4
T1 sequence (P00970 whole entry): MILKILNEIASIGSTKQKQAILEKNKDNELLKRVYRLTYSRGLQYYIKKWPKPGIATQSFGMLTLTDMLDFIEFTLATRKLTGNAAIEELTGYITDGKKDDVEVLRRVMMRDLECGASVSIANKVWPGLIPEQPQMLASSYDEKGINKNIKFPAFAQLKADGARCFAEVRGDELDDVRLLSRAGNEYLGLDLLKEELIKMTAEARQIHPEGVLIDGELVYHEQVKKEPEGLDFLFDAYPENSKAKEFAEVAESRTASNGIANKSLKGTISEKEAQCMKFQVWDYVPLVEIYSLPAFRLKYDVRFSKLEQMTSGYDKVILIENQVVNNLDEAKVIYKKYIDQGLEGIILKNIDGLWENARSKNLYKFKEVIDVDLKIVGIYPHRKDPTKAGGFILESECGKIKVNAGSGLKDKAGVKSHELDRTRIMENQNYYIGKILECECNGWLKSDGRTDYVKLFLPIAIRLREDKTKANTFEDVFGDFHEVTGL

Escherichia coli [3] = assay: In vivo antibacterial activity against Escherichia coli GR501 harboring lig251 temperature-sensitive mutant gene transformed with control plasmid pTrc99A assessed as growth inhibition after 20 hrs by microdilution assay; format: functional; conditions: GR501, 20 h
Escherichia coli [4] = assay: In vivo antibacterial activity against Escherichia coli GR501 harboring temperature-sensitive lig251 mutant gene transformed with plasmid encoding T4 DNA ligase assessed as growth inhibition after 20 hrs by microdilution assay; format: functional; conditions: GR501, 20 h
[5] = Competitive inhibition of nick joining activity of Mycobacterium tuberculosis full length NAD+-dependent DNA ligase using [gamma32P]ATP-labeled nicked 40 bp DNA as substrate by double reciprocal plot assay in presence of rising concentrations of NAD+
Calf thymus DNA = assay: Binding affinity to calf thymus DNA up to 250 uM by ethidium bromide displacement assay; format: nucleic-acid assay; conditions: Bos taurus
[6] = Binding affinity to plasmid DNA (unknown origin) by gel electrophoresis mobility shift assay
Salmonella typhimurium [7] = assay: In vivo antibacterial activity against wild type Salmonella typhimurium LT2 assessed as growth inhibition after 20 hrs by microdilution assay; format: functional, Salmonella enterica subsp. enterica serovar Typhimurium; conditions: Salmonella enterica, LT2, 20 h
[8] = Ratio of IC50 for ATP-dependent bacteriophage T4 DNA ligase to IC50 for Mycobacterium tuberculosis full length NAD+-dependent DNA ligase
[9] = Ratio of IC50 for human DNA ligase 1 to IC50 for Mycobacterium tuberculosis full length NAD+-dependent DNA ligase
Salmonella typhimurium [10] = assay: In vivo antibacterial activity against DNA ligase deficient Salmonella typhimurium variant TT15151 expressing […] T4 DNA ligase gene assessed as growth inhibition after 20 hrs by microdilution assay; format: functional, Salmonella enterica subsp. enterica serovar Typhimurium; conditions: Salmonella enterica, TT15151, 20 h

Chain of DNA ligase 1 (P18858 whole entry): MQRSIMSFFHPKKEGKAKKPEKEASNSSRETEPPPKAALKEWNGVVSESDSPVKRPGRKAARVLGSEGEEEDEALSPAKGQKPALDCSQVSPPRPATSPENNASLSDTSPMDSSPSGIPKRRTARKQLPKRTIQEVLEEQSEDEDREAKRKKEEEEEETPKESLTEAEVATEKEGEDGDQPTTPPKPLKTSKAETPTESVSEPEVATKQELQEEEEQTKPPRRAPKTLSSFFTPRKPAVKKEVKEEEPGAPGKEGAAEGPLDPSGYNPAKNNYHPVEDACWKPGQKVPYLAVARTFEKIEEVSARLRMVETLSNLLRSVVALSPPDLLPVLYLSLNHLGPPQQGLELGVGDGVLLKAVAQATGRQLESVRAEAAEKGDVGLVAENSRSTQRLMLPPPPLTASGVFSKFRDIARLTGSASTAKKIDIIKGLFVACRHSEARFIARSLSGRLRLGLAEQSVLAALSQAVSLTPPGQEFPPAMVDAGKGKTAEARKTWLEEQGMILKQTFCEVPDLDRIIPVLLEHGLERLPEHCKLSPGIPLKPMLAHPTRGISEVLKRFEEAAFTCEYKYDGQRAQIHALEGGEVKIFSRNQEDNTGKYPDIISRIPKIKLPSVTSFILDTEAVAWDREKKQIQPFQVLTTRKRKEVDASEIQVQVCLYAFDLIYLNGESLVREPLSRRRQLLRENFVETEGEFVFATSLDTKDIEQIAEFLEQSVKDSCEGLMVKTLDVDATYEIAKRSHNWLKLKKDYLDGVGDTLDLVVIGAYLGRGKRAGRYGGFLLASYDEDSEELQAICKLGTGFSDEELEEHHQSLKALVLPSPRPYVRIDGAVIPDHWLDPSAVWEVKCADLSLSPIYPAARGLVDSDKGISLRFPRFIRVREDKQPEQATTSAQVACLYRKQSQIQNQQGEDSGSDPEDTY

## NNC(=O)c1ccncc1 [ISONIAZID]
[1]
  MIC90: 4.7 µM (≈ 0.645 µg/mL)

## O=C1C2(CCC13CC3c1ccc(OCc3ccccc3)cc1)CC2c1ccc(OCc2ccccc2)cc1 (centres undefined)
[1]
  MIC90: 25 µM (≈ 12.5 µg/mL)

## COc1ccc(C2CC23CCCCC2(CC2c2ccc(OC)cc2)C3=O)cc1 (centres undefined)
[1]
  MIC90: > 30 µM

## O=C1C2(CCCC13CC3c1ccc(OCc3ccccc3)cc1)CC2c1ccc(OCc2ccccc2)cc1 (centres undefined)
[1]
  MIC90: 24.3 µM (≈ 12.5 µg/mL)

## COc1ccc(C2CC23CCC2(CC2c2ccc(OC)cc2)C3=O)cc1 (centres undefined)
[1]
  MIC90: > 30 µM

## O=C1C2(CCCC13CC3c1ccccc1)CC2c1ccccc1 (centres undefined)
[1]
  MIC90: > 30 µM
[2]
  IC50: 180 µM
DNA ligase 1
  IC50: 130 µM
DNA ligase
  IC50: 210 µM

## COc1cc(C2CC23CCCCC2(CC2c2cc(OC)c(OC)c(OC)c2)C3=O)cc(OC)c1OC (centres undefined)
[1]
  MIC90: 25.2 µM (≈ 12.5 µg/mL)

## O=C1C2(CCC13CC3c1ccc(Br)cc1)CC2c1ccc(Br)cc1 (centres undefined)
[1]
  MIC90: 28 µM (≈ 12.5 µg/mL)

## COc1ccc(C2CC23CCC2(CC2c2ccc(OC)c(OC)c2)C3=O)cc1OC (centres undefined)
[1]
  MIC90: > 30 µM

## CC[C@@H](CO)NCCN[C@@H](CC)CO [ETHAMBUTOL]
[1]
  MIC90: 15.9 µM (≈ 3.25 µg/mL)

## O=C(C1CC1c1ccc(OCc2ccccc2)cc1)C1CC1c1ccc(OCc2ccccc2)cc1 (centres undefined)
[1]
  MIC90: 26.3 µM (≈ 12.5 µg/mL)

## COc1ccc(C2CC23CCCC2(CC2c2ccc(OC)cc2)C3=O)cc1 (centres undefined)
[1]
  MIC90: > 30 µM

## COc1cc(C2CC23CCCC2(CC2c2cc(OC)c(OC)c(OC)c2)C3=O)cc(OC)c1OC (centres undefined)
[1]
  MIC90: 25.9 µM (≈ 12.5 µg/mL)

## O=C1C2(CCCC13CC3c1ccc(Cl)cc1)CC2c1ccc(Cl)cc1 (centres undefined)
[1]
  MIC90: 16.8 µM (≈ 6.24 µg/mL)
[2]
  IC50: 12 µM
DNA ligase 1
  IC50: 18.5 µM
DNA ligase
  IC50: 20.2 µM

## COc1ccc(C2CC23CCCC2(CC2c2ccc(OC)c(OC)c2)C3=O)cc1OC (centres undefined)
[1]
  MIC90: 29.6 µM (≈ 12.5 µg/mL)

## O=C1C2(CCCC13CC3c1ccc(Br)cc1)CC2c1ccc(Br)cc1 (centres undefined)
Escherichia coli [3]
  MIC: 8.6 µM (≈ 3.96 µg/mL)
Escherichia coli [4]
  MIC: 65.2 µM (≈ 30 µg/mL)
[5]
  Ki: 5.9 µM
Calf thymus DNA
  Activity: inactive
[6]
  Activity: inactive
Salmonella typhimurium [7]
  MIC: 43.4 µM (≈ 20 µg/mL)
[1]
  MIC90: 13.5 µM (≈ 6.21 µg/mL)
[2]
  IC50: 7.3 µM
DNA ligase 1
  IC50: 58.6 µM
[8]
  Ratio IC50: 8
DNA ligase
  IC50: 70.2 µM
[9]
  Ratio IC50: 8
Salmonella typhimurium [10]
  MIC: 76 µM (≈ 35 µg/mL)

## O=C1C2(CCC13CC3c1ccc(F)cc1)CC2c1ccc(F)cc1 (centres undefined)
[1]
  MIC90: > 30 µM

## COc1ccc(C2CC23CCCCC2(CC2c2ccc(OC)c(OC)c2)C3=O)cc1OC (centres undefined)
[1]
  MIC90: 28.6 µM (≈ 12.5 µg/mL)

## O=C1C2(CCCC13CC3c1ccc(F)cc1)CC2c1ccc(F)cc1 (centres undefined)
Escherichia coli [3]
  MIC: 5.9 µM (≈ 2 µg/mL)
Escherichia coli [4]
  MIC: 178 µM (≈ 60.1 µg/mL)
Calf thymus DNA
  Activity: inactive
[6]
  Activity: inactive
Salmonella typhimurium [7]
  MIC: 29.5 µM (≈ 9.98 µg/mL)
[1]
  MIC90: > 30 µM
[2]
  IC50: 8.6 µM
DNA ligase 1
  IC50: 45.4 µM
[8]
  Ratio IC50: 4
DNA ligase
  IC50: 33.4 µM
[9]
  Ratio IC50: 5
Salmonella typhimurium [10]
  MIC: 148 µM (≈ 50 µg/mL)

## O=C1C2(CCCCC13CC3c1ccc(Cl)cc1)CC2c1ccc(Cl)cc1 (centres undefined)
[1]
  MIC90: > 30 µM

— ChEMBL document CHEMBL3217431, “Synthesis, in silico screening and bioevaluation of dispiro-cycloalkanones as antitubercular and mycobacterial NAD+-dependent DNA ligase inhibitors” (Medchemcomm, 2011)
